The text below walks through data of patent US10150760B2, “Compounds for use in preparing heterocyclic triazole agonists of the APJ receptor” (AMGEN INC., priority 2016, dated 2018).

What is called EC50 is the concentration giving half of the maximal effect.

human APJ receptor, sequence (P35414 whole entry): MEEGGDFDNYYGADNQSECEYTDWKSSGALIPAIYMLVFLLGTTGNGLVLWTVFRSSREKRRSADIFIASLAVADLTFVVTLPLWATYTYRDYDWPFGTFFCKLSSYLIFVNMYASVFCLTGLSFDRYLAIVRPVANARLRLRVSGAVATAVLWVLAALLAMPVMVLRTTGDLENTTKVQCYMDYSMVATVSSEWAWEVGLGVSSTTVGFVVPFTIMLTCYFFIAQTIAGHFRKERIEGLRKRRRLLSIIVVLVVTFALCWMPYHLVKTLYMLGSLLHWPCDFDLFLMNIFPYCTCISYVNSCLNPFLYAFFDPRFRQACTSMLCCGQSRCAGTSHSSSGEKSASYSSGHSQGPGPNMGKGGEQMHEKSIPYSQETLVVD

The assay has as its target human APJ receptor (Homo sapiens (Human), UniProt P35414). Briefly: [35S]GTPγS binding assay on membranes from CHO cells stably expressing human APJ receptor. The format is biochemical. To be noted: read-out: Activity hAPJ SPA EC50 IP. The gist of the method:
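Agonist-driven [35S]GTPγS (0.2 nM) binding was measured over 90 min at room temperature on human APJ-expressing CHO membranes with bead capture, in buffer containing 3 μM GDP, 200 mM NaCl and 5 mM MgCl2 (pH 7.5). Excess unlabelled GTPγS (100 μM) gave nonspecific signal; EC50 from non-linear fits.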
A general note: GTPγS resists hydrolysis and so accumulates on activated G proteins.
Take `COc1cccc(OC)c1-n1c(NS(=O)(=O)[C@@H](C)[C@H](C)c2ncc(Cl)cn2)nnc1[C@H]1CCO1` (single isomer, unassigned) [Example 445.0, (2S,3R)-3-(5-chloropyrimidin-2-yl)-N-(4-(2,6-dimethoxyphenyl)-5-((R)-oxetan-2-yl)-4H-1,2,4-triazol-3-yl)butane-2-sulfonamide or (2S,3R)-3-(5-chloropyrimidin-2-yl)-N-(4-(2,6-dimethoxyphenyl)-5-((S)-oxetan-2-yl)-4H-1,2,4-triazol-3-yl)butane-2-sulfonamide]: the EC50 turned out to be 30 nM.
Turning to `COc1cccc(OC)c1-n1c(NS(=O)(=O)[C@@H](C)[C@H](C)c2ncc(Cl)cn2)nnc1[C@@H]1CCN(C(=O)OC(C)(C)C)C1` (stereo in doubt) [Example 41.0, tert-butyl (3R)-3-(5-((((1S,2R)-2-(5-chloro-2-pyrimidinyl)-1-methylpropyl)sulfonyl)amino)-4-(2,6-dimethoxyphenyl)-4H-1,2,4-triazol-3-yl)-1-pyrrolidinecarboxylate or tert-butyl (3S)-3-(5-((((1S,2R)-2-(5-chloro-2-pyrimidinyl)-1-methylpropyl)sulfonyl)amino)-4-(2,6-dimethoxyphenyl)-4H-1,2,4-triazol-3-yl)-1-pyrrolidinecarboxylate], the EC50 came to 820 nM.
For `COc1cccc(OC)c1-n1c(NS(=O)(=O)[C@@H](C)[C@H](C)c2ncc(Cl)cn2)nnc1[C@H]1CCN(C(=O)OC(C)(C)C)C1` (stereo in doubt) [Example 42.0, tert-butyl (3S)-3-(5-((((1S,2R)-2-(5-chloro-2-pyrimidinyl)-1-methylpropypsulfonyl)amino)-4-(2,6-dimethoxyphenyl)-4H-1,2,4-triazol-3-yl)-1-pyrrolidinecarboxylate or tert-butyl (3R)-3-(5-((((1S,2R)-2-(5-chloro-2-pyrimidinyl)-1-methylpropypsulfonyl)amino)-4-(2,6-dimethoxyphenyl)-4H-1,2,4-triazol-3-yl)-1-pyrrolidinecarboxylate], the EC50 is 210 nM.
The result for `COc1cccc(OC)c1-n1c(NS(=O)(=O)[C@H](C)Cc2ncc(F)cn2)nnc1[C@H]1CCOC1` [Example 6.0] reads 400 nM; that for `Cc1cnc([C@@H](C)[C@H](C)S(=O)(=O)Nc2nnc([C@@H]3CCCO3)n2-c2c(F)cccc2F)nc1` [Example 18.0, (2S,3R)-N-(4-(2,6-difluorophenyl)-5-((2S)-tetrahydro-2-furanyl)-4H-1,2,4-triazol-3-yl)-3-(5-methyl-2-pyrimidinyl)-2-butanesulfonamide], 120 nM.
Take `Cc1cnc([C@@H](C)[C@H](C)S(=O)(=O)Nc2nnc([C@H]3CCCO3)n2-c2c(F)cccc2F)nc1` [Example 19.0, (2S,3R)-N-(4-(2,6-difluorophenyl)-5-((2R)-tetrahydro-2-furanyl)-4H-1,2,4-triazol-3-yl)-3-(5-methyl-2-pyrimidinyl)-2-butanesulfonamide]: the EC50 is 60 nM.
In the case of `Cc1cnc([C@@H](C)[C@H](C)S(=O)(=O)Nc2nnc([C@@H]3CCCO3)n2-c2c(F)cncc2F)nc1` [Example 25.0, (2S,3R)-N-(4-(3,5-difluoro-4-pyridinyl)-5-((2S)-tetrahydro-2-furanyl)-4H-1,2,4-triazol-3-yl)-3-(5-methyl-2-pyrimidinyl)-2-butanesulfonamide], the EC50 was 130 nM.
In the case of `Cc1cnc([C@@H](C)[C@H](C)S(=O)(=O)Nc2nnc([C@H]3CCCO3)n2-c2c(F)cncc2F)nc1` [Example 26.0, (2S,3R)-N-(4-(3,5-difluoro-4-pyridinyl)-5-((2R)-tetrahydro-2-furanyl)-4H-1,2,4-triazol-3-yl)-3-(5-methyl-2-pyrimidinyl)-2-butanesulfonamide], the EC50 turned out to be 870 nM.
Take `COc1cccc(OC)c1-n1c(NS(=O)(=O)[C@@H](C)[C@H](C)c2ncc(Cl)cn2)nnc1C1COC1` [Example 36.0, (2S,3R)-3-(5-chloro-2-pyrimidinyl)-N-(4-(2,6-dimethoxyphenyl)-5-(3-oxetanyl)-4H-1,2,4-triazol-3-yl)-2-butanesulfonamide]: the EC50 stood at 140 nM.
With `COc1cccc(OC)c1-n1c(NS(=O)(=O)CCc2ccc(F)cc2C#N)nnc1[C@H]1CCC(=O)N1` [Example 43.0, 2-(2-Cyano-4-fluorophenyl)-N-(4-(2,6-dimethoxyphenyl)-5-((2R)-5-oxo-2-pyrrolidinyl)-4H-1,2,4-triazol-3-yl)ethanesulfonamide], the EC50 is 1190 nM.
With `COc1cccc(OC)c1-n1c(NS(=O)(=O)CCc2ccc(F)cc2C#N)nnc1[C@@H]1CCC(=O)N1` [Example 44.0, 2-(2-Cyano-4-fluorophenyl)-N-(4-(2,6-dimethoxyphenyl)-5-((2S)-5-oxo-2-pyrrolidinyl)-4H-1,2,4-triazol-3-yl)ethanesulfonamide], the EC50 came to 430 nM.
Turning to `COc1cccc(OC)c1-n1c(NS(=O)(=O)[C@@H](C)[C@H](OC)c2ncc(Cl)cn2)nnc1C1CCOCC1` [Example 103.0, (1R,2S)-1-(5-chloropyrimidin-2-yl)-N-(4-(2,6-dimethoxyphenyl)-5-(tetrahydro-2H-pyran-4-yl)-4H-1,2,4-triazol-3-yl)-1-methoxypropane-2-sulfonamide], the EC50 was 45 nM.
With `COc1ccccc1-n1c(NS(=O)(=O)[C@@H](C)[C@H](OC)c2ncc(Cl)cn2)nnc1[C@@H]1CCCO1` [Example 240.0, (1R,2S)-1-(5-chloro-2-pyrimidinyl)-1-methoxy-N-(4-(2-methoxyphenyl)-5-((2S)-tetrahydro-2-furany1)-4H-1,2,4-triazol-3-y1)-2-propanesulfonamide], the EC50 amounted to 1.3 nM.
In the case of `CCc1ccccc1-n1c(NS(=O)(=O)[C@@H](C)[C@H](OC)c2ncc(Cl)cn2)nnc1[C@@H]1CCCO1` [Example 241.0, (1R,2S)-1-(5-chloro-2-pyrimidinyl)-N-(4-(2-ethylphenyl)-5-((2S)-tetrahydro-2-furanyl)-4H-1,2,4-triazol-3-y1)-1-methoxy-2-propanesulfonamide], the EC50 worked out at 1.4 nM.
In the case of `CO[C@H](c1ncc(Cl)cn1)[C@H](C)S(=O)(=O)Nc1nnc([C@@H]2CCCO2)n1-c1ccccc1C` [Example 242.0, (1R,2S)-1-(5-chloro-2-pyrimidinyl)-1-methoxy-N-(4-(2-methylphenyl)-5-((2S)-tetrahydro-2-furanyl)-4H-1,2,4-triazol-3-yl)-2-propanesulfonamide], the EC50 amounted to 8.7 nM.
With `CO[C@H](c1ncc(Cl)cn1)[C@H](C)S(=O)(=O)Nc1nnc([C@@H]2CCCO2)n1-c1ccccc1Cl` [Example 243.0, (1R,2S)-N-(4-(2-chlorophenyl)-5-((2S)-tetrahydro-2-furanyl)-4H-1,2,4-triazol-3-yl)-1-(5-chloro-2-pyrimidinyl)-1-methoxy-2-propanesulfonamide], the EC50 was determined as 5.6 nM.
Turning to `CO[C@H](c1ncc(Cl)cn1)[C@H](C)S(=O)(=O)Nc1nnc([C@@H]2CCCO2)n1-c1ccccc1F` [Example 244.0, (1R,2S)-1-(5-chloro-2-pyrimidinyl)-N-(4-(2-fluorophenyl)-5-((2S)-tetrahydro-2-furanyl)-4H-1,2,4-triazol-3-yl)-1-methoxy-2-propanesulfonamide], the EC50 stood at 21 nM.
With `COCC(COC)n1c(NS(=O)(=O)[C@@H](C)[C@H](OC)c2ncc(Cl)cn2)nnc1[C@H]1CCCO1` [Example 330.0, (1R,2S)-1-(5-chloro-2-pyrimidinyl)-N-(4-(1,3-dimethoxy-2-propanyl)-5-((2R)-tetrahydro-2-furanyl)-4H-1,2,4-triazol-3-yl)-1-methoxy-2-propanesulfonamide], the EC50 was 160 nM.
For the molecule `COCC(COC)n1c(NS(=O)(=O)[C@@H](C)[C@H](OC)c2ncc(Cl)cn2)nnc1[C@@H]1CCCO1` [Example 332.0, (1R,2S)-1-(5-chloro-2-pyrimidinyl)-N-(4-(1,3-dimethoxy-2-propanyl)-5-((2S)-tetrahydro-2-furanyl)-4H-1,2,4-triazol-3-yl)-1-methoxy-2-propanesulfonamide], the EC50 stood at 14 nM.
Next, `COc1cccc(OC)c1-n1c(NS(=O)(=O)CCc2ccc(F)cc2C#N)nnc1[C@@H]1CCOC1` [Example 345.0, (S)-2-(2-cyano-4-fluorophenyl)-N-(4-(2,6-dimethoxyphenyl)-5-(tetrahydrofuran-3-yl)-4H-1,2,4-triazol-3-yl) ethanesulfonamide]: 100 nM; `COc1cccc(OC)c1-n1c(NS(=O)(=O)CCc2ncc(Cl)cn2)nnc1[C@@H]1CCOC1` [Example 386.0, 2-(5-chloro-2-pyrimidinyl)-N-(4-(2,6-dimethoxyphenyl)-5-((3S)-tetrahydro-3-furanyl)-4H-1,2,4-triazol-3-yl)ethanesulfonamide]: 81 nM; `COc1cccc(OC)c1-n1c(NS(=O)(=O)CCc2ncc(Cl)cn2)nnc1[C@@H]1CCCO1` [Example 388.0, 2-(5-chloro-2-pyrimidinyl)-N-(4-(2,6-dimethoxyphenyl)-5-((2S)-tetrahydro-2-furanyl)-4H-1,2,4-triazol-3-yl)ethanesulfonamide]: 9.8 nM.
`COc1cccc(OC)c1-n1c(NS(=O)(=O)CCc2ncc(Cl)cn2)nnc1[C@H]1CCCO1` [Example 389.0, 2-(5-chloro-2-pyrimidinyl)-N-(4-(2,6-dimethoxyphenyl)-5-((2R)-tetrahydro-2-furanyl)-4H-1,2,4-triazol-3-yl)ethanesulfonamide]: the EC50 worked out at 96 nM.
The result for “(1R,2)S-1-(5-chloropyrimidin-2-yl)-N-(5-((S)-5,5-dimethyltetrahydrofuran-2-yl)-4-(tetrahydro-2H-pyran-4-yl)-4H-1,2,4-triazol-3-yl)-1-methoxypropane-2-sulfonamide or (1R,2S)-1-(5-chloropyrimidin-2-yl)-N-(5-((R)-5,5-dimethyltetrahydrofuran-2-yl)-4-(tetrahydro-2H-pyran-4-yl)-4H-1,2,4-triazol-3-yl)-1-methoxypropane-2-sulfonamide [Example 222.0]” reads 740 nM.
